Laboratory results taken from PubChem BioAssay (NCI).
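Step 1: Grow cells in 96-well plates. Step 2: Expose to compound for 48 hours at 5 concentrations. Step 3: Interpolate endpoints linearly; if unreached, use highest concentration. GI50 = concentration required for 50% inhibition of growth. TGI: total growth inhibition.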

Assays:
Experiment in all cases: growth of human tumour cells (NCI), 48 h
SK-MEL-28 melanoma = system: SK-MEL-28 melanoma
MOLT-4 leukemia = system: MOLT-4 leukemia
ACHN renal = system: ACHN renal
OVCAR-5 ovarian = system: OVCAR-5 ovarian
HCT-15 colon = system: HCT-15 colon
OVCAR-4 ovarian = system: OVCAR-4 ovarian
CAKI-1 renal = system: CAKI-1 renal
K-562 leukemia = system: K-562 leukemia
UACC-257 melanoma = system: UACC-257 melanoma
SR leukemia = system: SR leukemia

Row | SMILES | TGI (SK-MEL-28 melanoma) [µM] | TGI (MOLT-4 leukemia) [µM] | TGI (ACHN renal) [µM] | TGI (OVCAR-5 ovarian) [µM] | TGI (HCT-15 colon) [µM] | TGI (OVCAR-4 ovarian) [µM] | TGI (CAKI-1 renal) [µM] | TGI (K-562 leukemia) [µM] | TGI (UACC-257 melanoma) [µM] | TGI (SR leukemia) [µM] | GI50 (SK-MEL-28 melanoma) [µM] | GI50 (MOLT-4 leukemia) [µM] | GI50 (ACHN renal) [µM] | GI50 (OVCAR-5 ovarian) [µM] | GI50 (HCT-15 colon) [µM] | GI50 (OVCAR-4 ovarian) [µM] | GI50 (CAKI-1 renal) [µM] | GI50 (K-562 leukemia) [µM] | GI50 (UACC-257 melanoma) [µM] | GI50 (SR leukemia) [µM]
1 | O=C1C(=O)C(Br)(Br)C(Br)=C1Br | 29.7 | 63 | 29.6 | 26.8 | 41.9 | 69.6 | 34.9 | 41.3 | 43.6 |  |  |  |  |  |  |  |  |  |  | 
2 | C1=Cc2nc1c(-c1ccncc1)c1ccc([n-]1)c(-c1ccncc1)c1nc(c(-c3ccncc3)c3ccc([n-]3)c2-c2ccncc2)C=C1.[Zn+2] | > 100 | > 100 | > 100 | > 100 | > 100 | > 100 | > 100 | > 100 | > 100 |  |  |  |  |  |  |  |  |  |  | 
3 | Nc1ccn(C2CC(CO)C(O)C2O)c(=O)n1 (stereo not given) | > 57.7 | > 57.7 | > 57.7 |  | > 57.7 | > 57.7 | > 57.7 | > 57.7 | > 57.7 | > 57.7 |  |  |  |  |  |  |  |  |  | 
4 | O=C1OC(O)C(Oc2ccc(Cl)cc2)=C1Cl (stereo not given) | > 100 | > 100 | > 100 | > 100 | > 100 | > 100 | > 100 | > 100 | > 100 |  |  |  |  |  |  |  |  |  |  | 
5 | CN(C)CC1(C)CC/C(=C\c2ccccc2)C1=O (stereo not given) | > 100 | > 100 | > 100 | > 100 | > 100 | > 100 | > 100 | > 100 | > 100 |  |  |  |  |  |  |  |  |  |  | 
6 | N#CCCN(c1ccc(-c2nnc(NC(=O)CNNC(=O)CC(=O)Nc3ccccc3)s2)cc1)S(=O)(=O)c1ccccc1 | > 100 | > 100 | > 100 | > 100 | > 100 | > 100 | > 100 | > 100 | > 100 |  |  |  |  |  |  |  |  |  |  | 
7 | COc1ccc(C(c2c(O)c3ccccc3n(C)c2=O)c2c(O)c3ccccc3n(C)c2=O)cc1 | > 100 | > 100 | > 100 | > 100 |  | > 100 | > 100 | > 100 | 46.4 | > 100 |  |  |  |  |  |  |  |  |  | 
8 | CN(C)CCNC(=O)c1cccc2[nH]c(-c3ccccc3)nc12 | 32.5 | 59.6 | 33.3 | 34.6 | 34.5 | 82.5 | 92.9 | > 100 | 30.6 |  |  |  |  |  |  |  |  |  |  | 
9 | O=C(/C=C\c1ccc(Cl)cc1Cl)c1cccs1 | 42.3 | > 100 | 27.9 | 41.3 | 34.4 |  | 80.4 | > 100 | 36.4 | > 100 |  |  |  |  |  |  |  |  |  | 
10 | C=C(C)[C@@H]1CC[C@]2(C)[C@H](CC[C@@H]3[C@H]4[C@H]5OC[C@@]4(CCC5(C)C)CC[C@]32C)[C@@]1(C)CCCN | 3.36 | 7.86 | 3.23 | 3.1 | 2.99 | 3.78 | 3 | 9.01 | 3.73 |  | 1.83 | 2.79 | 1.84 | 1.71 | 1.59 | 2.04 | 1.62 | 2.25 | 1.88 | 
11 | COc1ccc(-c2ccc(C3CC(c4ccc(Cl)cc4)=NN3)o2)c([N+](=O)[O-])c1 (stereo not given) | > 100 | > 100 |  | > 100 | > 100 | > 100 |  | > 100 | > 100 | > 100 | > 100 | > 100 |  | > 100 | > 100 | > 100 |  | > 100 | > 100 | > 100
12 | NCCNC(=S)S | > 100 | 77.9 | > 100 | > 100 | > 100 | > 100 | > 100 | 95.1 | > 100 |  |  |  |  |  |  |  |  |  |  | 
13 | COc1ccc2c(c1)CCC1C2CC[C@]2(C)/C(=N/OC(=O)Cc3ccccc3)CCC12 (stereo not given in full) | 78.1 | 35.8 | 32 | > 100 | 36.3 | 48.5 | 30.9 |  | 38.4 | 33.3 | 24.1 | 17.2 | 16.4 | 46.6 | 18 | 18.4 | 16 |  | 18.7 | 14.2
14 | Cc1ccccc1C(C#N)C(=O)C(=O)Nc1cccc(Cl)c1 (stereo not given) | > 100 | > 100 | > 100 | > 100 | > 100 |  | > 100 | > 100 | > 100 |  |  |  |  |  |  |  |  |  |  | 
15 | Cc1[nH]c(=O)[nH]c(=O)c1CO | > 100 | > 100 | > 100 | > 100 | > 100 |  | > 100 | > 100 | > 100 | > 100 | > 100 | > 100 | > 100 | > 100 | > 100 |  | > 100 | > 100 | > 100 | > 100
16 | CC1C=CC(=O)C(n2cc(F)c(=O)[nH]c2=O)O1 (stereo not given) | 46.8 | 48.7 | 36.8 |  | 42.4 | 34.3 | 24.2 | 79.8 | 30 |  |  |  |  |  |  |  |  |  |  | 
17 | COc1ccc2nc3ccccc3c(NCCCCCCN(C)CCCl)c2c1 | 2.26 | 0.165 | 2.36 | 3.25 | 2.01 | 3.03 | 3.19 |  | 3.19 |  |  |  |  |  |  |  |  |  |  | 
18 | COc1ccc(C2=NN(C(C)=O)C(c3cn(-c4ccccc4)nc3-c3ccc(Cl)cc3)C2)cc1 (stereo not given) | > 100 | > 100 | > 100 | > 100 | > 100 |  | > 100 | > 100 | > 100 |  | > 100 | > 100 | > 100 | > 100 |  |  | > 100 | > 100 | > 100 | 
19 | CCC(C)C(NC(=O)C1CCCN1C(=O)C(NC(=O)C(C)N)C(C)C)C(N)=O (stereo not given) | > 100 | > 100 | > 100 |  | > 100 | > 100 | > 100 | > 100 | > 100 |  | > 100 | > 100 | > 100 |  | > 100 | > 100 | > 100 | > 100 | > 100 | 
